Key:
Format in all cases: physicochemical
[1] = Solid stability test of the crystal forms (influence factors and acceleration tests; appearance, XRPD, HPLC content and impurities); conditions: for photostability (stability under light radiation), conclusion in words / stability under acceleration conditions, conclusion in words / stability under high humidity conditions, conclusion in words / thermal stability (high temperature), conclusion in words: conclusion of influence factors and acceleration tests
Excerpt: A sample of the crystal form A was placed on the bottom of a glass sample bottle, and spread to a thin layer. The sample stored under high temperature, high humidity, and acceleration conditions was placed in a bottle of which the mouth was packed with a pierced aluminum foil to ensure the sample to be sufficiently exposed to ambient air; the sample stored under light radiation conditions was placed at room temperature in a standing bottle of which the mouth was open, the sample was exposed to a light resource, and sampled for detection after being radiated by sufficient energy. Samples were taken and analyzed at various time points, and the test results were compared with the initial test results of 0 day, the inspection items included appearance, content and impurities, and the test results are shown in Table 9.
A sample of the crystal form B (10 mg) was placed on the bottom of a glass sample bottle, and spread to a thin layer. The sample stored under high temperature, high humidity, and acceleration conditions were placed in a bottle of which the mouth was packed with a pierced aluminum foil to ensure the sample to be sufficiently exposed to ambient air; the sample stored under light radiation conditions was placed at room temperature in a standing bottle of which the mouth was open, the sample was exposed to a light resource, and sampled for detection after being radiated by sufficient energy, the control sample stored in dark (open, the whole sample bottle was sealed with aluminum foil to keep the content in dark) and the sample stored under light radiation conditions were placed together to exclude environmental influence on the samples. Samples were taken and analyzed at various time points, and the test results were compared with the initial test results of 0 day, the inspection items included appearance, crystal form, content and impurities, the test results are shown in Table 10.
(§1) A sample of the crystal form C was taken and placed on the bottom of a glass sample bottle, and spread to a thin layer. The sample stored under high temperature, high humidity, and acceleration conditions was placed in a bottle of which the mouth was packed with a pierced aluminum foil to ensure the sample to be sufficiently exposed to ambient air; the sample stored under light radiation conditions was placed at room temperature in a standing bottle of which the mouth was open, the sample was exposed to a light resource, and sampled for detection after being radiated by sufficient energy. Samples were taken and analyzed at various time points, and the test results were compared with the initial test results of 0 day.
as §1, with “D” for “C”
A sample of the crystal form E (10 mg) was taken and placed on the bottom of a glass sample bottle, and spread to a thin layer. […]

[2] = Stability of the crystal form on stirring as suspension in solvent (40° C., 2 days)
Procedure: 30 mg of the compound represented by formula (I) was weighed and added into a glass flask, 400 μL acetonitrile-water (1:1) was added to form a suspension. A sample of the suspension was placed on a magnetic stirrer (40° C.) for a dark stirring experiment. The sample of the suspension was centrifuged after stirring at 40° C. for 2 days, and then the residual sample was dried in a vacuum drying oven (30° C.) overnight to give a crystal form A of the compound represented by formula (I). The XRPD pattern of the crystal form A of the compound represented by formula (I) is shown in FIG. 1, the DSC pattern is shown in FIG. 2, and the TGA pattern is shown in FIG. 3.
30 mg of the compound represented by formula (I) was weighed and added into a glass flask, and 400 μL ethyl acetate was added to form a suspension. A sample of the suspension was placed on a magnetic stirrer (40° C.) for dark stirring experiment. The sample of the suspension was centrifuged after stirring at 40° C. for 2 days, and then the residual sample was dried in a vacuum drying oven (30° C.) overnight. The crystal form was detected by XRPD to give a crystal form A of the compound represented by formula (I).
30 mg of the compound represented by formula (I) was weighed and added into a glass flask, and 400 μL methanol was added to form a suspension. A sample of the suspension was placed on a magnetic stirrer (40° C.) for dark stirring experiment. The sample of the suspension was centrifuged after stirring at 40° C. for 2 days, and then the residual sample was dried in a vacuum drying oven (30° C.) overnight to give a crystal form B of the compound represented by formula (I). The XRPD pattern of the crystal form B of the compound represented by formula (I) is shown in FIG. 4, the DSC pattern is shown in FIG. 5, and the TGA pattern is shown in FIG. 6.
50 mg of the compound represented by formula (I) was weighed and added into a 1.5 mL liquid vial, and 200 μL methanol was added thereto, the obtained mixture was homogeneously mixed under ultrasound. The dissolved sample was quickly centrifuged, and the supernatant was placed in a centrifuge tube, the mouth of the tube was packed with a pierced aluminum foil, and then the tube was placed in a fume cupboard for volatilization; the sample of the suspension was placed on a magnetic stirring heater (40° C.) for stirring (in dark), and quickly centrifuged after 2 days. The resultant solid was collected and dried at 30° C. in a vacuum drying oven overnight to give the crystal form C of the compound represented by formula (I). The XRPD pattern of the crystal form C of the compound represented by formula (I) is shown in FIG. 7, the DSC pattern is shown in FIG. 8, and the TGA pattern is shown in FIG. 9.
50 mg of the compound represented by formula (I) was weighed and added into a 1.5 mL liquid vial, and 200 μL ethanol was added thereto, and the obtained mixture was homogeneously mixed under ultrasound. The dissolved sample was quickly centrifuged, the supernatant was placed into a centrifuge tube, and the mouth of the tube was packed with a pierced aluminum foil, and placed in a fume cupboard for volatilization; the sample of the suspension was placed on a magnetic stirring heater (40° C.) for stirring (in dark), and quickly centrifuged after 2 days. The solid obtained as above was collected and dried at 30° C. in a vacuum drying oven overnight to give a crystal form D of the compound represented by formula (I). The XRPD pattern of the crystal form D of the compound represented by formula (I) is shown in FIG. 10, the DSC pattern is shown in FIG. 11, and the TGA pattern is shown in FIG. 12.
35 mg of the compound represented by formula (II) was weighed and added into a 1.5 mL liquid vial, and 400 μL methanol was added thereto, and the obtained mixture was homogeneously mixed under ultrasound. […]

[3] = Solubility test in biological media (FaSSIF, FeSSIF, SGF) and water, 37° C.; conditions: SGF and fasting or satiety state simulated intestinal fluid
Procedure: Step 1: Preparation of Control Solutions (0.2 mg/mL, calculated by free base)
2 mg the crystal form B of the compound represented by formula (I) (or 2.4 mg the crystal form E of the compound represented by formula (II)) as a control was precisely weighed and placed into a 40 mL glass vial, and a diluent (10 mL) was precisely added. The reaction solution was subjected to ultrasonic treatment for 20 min to sufficiently dissolve, then cooled to room temperature and shaked well. Two control solutions (STD #1, STD #2) were formulated in accordance with this method.
Step 2: Preparation of Linear Solutions
The control solution STD #1 of the crystal form B of the compound represented by formula (I) was 1×, 10×, 100×, 1000× and 2000× (free base LOQ) diluted, and designated as the linear solutions L1, L2, L3, L4 and L5; the control solution STD #1 of the crystal form E of the compound represented by formula (II) was 1×, 10×, 100× and 1000× (methanesulfonate LOQ) diluted, and designated as the linear solutions L1, L2, L3, L4.
Step 3: Solubility Test of the crystal form B of the compound represented by formula (I), the crystal form G of the compound represented by formula (III) and the crystal form E of the compound represented by formula (II) in biological media and water
4 samples (about 4 mg) of each of the crystal form B of the compound represented by formula (I), the crystal form E of the compound represented by formula (II), and the crystal form G of the compound represented by formula (III) were added into 12 glass vials (4 mL), respectively, and then 2 mL different biological media (FaSSIF, FeSSIF, SGF) and water were added into each compound respectively, then mixed homogeneously to form a suspension. The suspension was detected for its initial pH value. A magnet was added into the suspension, and placed on a magnetic stirring heater for stirring (at a temperature of 37° C., in dark). After stirring for 24 h, a sample was taken. The taken sample was quickly centrifuged, and the residual solid was detected by XRPD. The supernatant was detected for its pH value and diluted with a diluent into appropriate multiple, then measured with HPLC for its concentration.
FaSSIF: 1. 0.042 g sodium hydroxide, 0.3438 g sodium dihydrogen phosphate and 0.6186 g sodium chloride were weighed, added into 90 mL purified water, and homogeneously mixed, then, the mixture was adjusted with 1 N hydrochloric acid or 1 N sodium hydroxide to pH=6.5, and diluted into a constant volume of 100 mL with purified water; 2. 50 mL of the buffer described above was taken, and 0.224 g commercially available powder (Biorelevant.com) of FaSSIF/FeSSIF/FaSSGF was added thereto, the mixture was stirred to dissolve, and diluted with purified water to a constant volume of 100 mL.
FeSSIF: 1. 0.404 g sodium hydroxide, 0.865 g glacial acetic acid, and 1.1874 g sodium chloride were weighed, added into 90 mL purified water, and homogeneously mixed, then, the mixture was adjusted with 1 N hydrochloric acid or 1 N sodium hydroxide to pH=5.0, and diluted with purified water to a constant volume of 100 mL, 2. 50 mL of the buffer described above was taken, and 1.12 g commercially available powder (Biorelevant.com) of FaSSIF/FeSSIF/FaSSGF was added thereto, the mixture was stirred to dissolve, and diluted with purified water to a constant volume of 100 mL.
FaSSGF (SGF): 1. 0.2 g sodium chloride was weighed, added into 90 mL purified water, and mixed homogeneously, the mixture was adjusted with 1 N hydrochloric acid to pH=1.8, and diluted with purified water to a constant volume of 100 mL, and stood at room temperature.

[4] = Acceleration test (40° C./relative humidity of 75%, open), 5 days
[5] = Acceleration test (40° C./relative humidity of 75%, open), 10 days
[6] = High humidity (room temperature/relative humidity of 92.5%, open), 5 days
[7] = High humidity (room temperature/relative humidity of 92.5%, open), 10 days
[8] = High temperature (60° C., open), 5 days
[9] = High temperature (60° C., open), 10 days
[10] = Light radiation (total illumination: 1.2 × 10^6 Lux·hr), 5 days
[11] = Light radiation (total illumination: 1.2 × 10^6 Lux·hr), 10 days

Appearance ([1]; 0 day (initial)) | Content (%) ([1]; 0 day (initial)) | Total Impurities (%) ([1]; 0 day (initial)) | Appearance [1, 4] | Appearance [1, 5] | Content (%) [1, 5] [%] | Total Impurities (%) [1, 5] [%] | Appearance [1, 6] | Appearance [1, 7] | Content (%) [1, 7] [%] | Total Impurities (%) [1, 7] [%] | Appearance [1, 8] | Appearance [1, 9] | Content (%) [1, 9] [%] | Total Impurities (%) [1, 9] [%] | Appearance [1, 10] | Appearance [1, 11] | Content (%) [1, 11] [%] | Total Impurities (%) [1, 11] [%] | photostability (stability under light radiation), conclusion in words [1] | Compound | further results
White | 99.26 | 0.72 | White | White | 99.22 | 0.71 | White | White | 99.24 | 0.73 | White | White | 99.22 | 0.79 | White | White | 99.30 | 0.73 | good | C=CC(=O)N[C@H]1COC[C@H]1Nc1ncc(/C=C(\F)c2c(Cl)c(OC)cc(OC)c2Cl)cn1.CS(=O)(=O)O [Crystal Form F] | Crystal Form (XRPD) ([1]; 0 day (initial)): form F; Crystal Form (XRPD) [1, 5]: form F; Crystal Form (XRPD) [1, 7]: form F; Crystal Form (XRPD) [1, 9]: form F; Crystal Form (XRPD) [1, 11]: form F; stability under acceleration conditions, conclusion in words [1]: good; stability under high humidity conditions, conclusion in words [1]: good; thermal stability (high temperature), conclusion in words [1]: slight impurity generation; stability in the ethanol-water solution ([2]; stirring in ethanol-water (1:1) at 40° C. for 2 days): substantially high stability
 |  |  |  |  |  |  |  |  |  |  |  |  |  |  |  |  |  |  |  | C=CC(=O)N[C@H]1COC[C@H]1Nc1ncc(/C=C(\F)c2c(Cl)c(OC)cc(OC)c2Cl)cn1.O=S(=O)(O)O [compound represented by formula (III)] | solubility in simulated gastric fluid (SGF) and simulated intestinal fluid (FaSSIF), in words [3]: relatively good solubility
Off-white | 99.11 | 1.12 | Off-white | Off-white | 98.98 | 1.18 | Off-white | Off-white | 98.85 | 1.22 | Off-white | Off-white | 99.06 | 1.18 | Off-white | Off-white | 99.13 | 1.10 | relatively good | C=CC(=O)N[C@H]1COC[C@H]1Nc1ncc(/C=C(\F)c2c(Cl)c(OC)cc(OC)c2Cl)cn1 [Crystal Form A] | stability under acceleration conditions, conclusion in words [1]: relatively good; stability under high humidity conditions, conclusion in words [1]: slightly less stability; thermal stability (high temperature), conclusion in words [1]: relatively good; stability in the acetonitrile-water solution ([2]; stirring in acetonitrile-water (1:1) at 40° C. for 2 days): substantially high stability; stability in the ethyl acetate solution ([2]; stirring in ethyl acetate at 40° C. for 2 days): substantially high stability
 |  |  |  |  |  |  |  |  |  |  |  |  |  |  |  |  |  |  |  | C=CC(=O)N[C@H]1COC[C@H]1Nc1ncc(/C=C(\F)c2c(Cl)c(OC)cc(OC)c2Cl)cn1.CS(=O)(=O)O [compound represented by formula (II)] | solubility in simulated gastric fluid (SGF) and simulated intestinal fluid (FaSSIF), in words [3]: relatively good solubility
